Assay results published in patent US20220402903A1, “ISOXAZOLINE COMPOUND WITH OPTICAL ACTIVITY AND USE” (SHENYANG SINOCHEM AGROCHEMICALS R&D CO., LTD., priority 2019, published 2022).

How the values were obtained:
Assay in all cases: Greenhouse herbicidal activity, post-emergence stem and leaf spray
Type in all cases: in vivo
[1] = tested on: Zinnia elegans; conditions: for Control effect on Zinnia elegans: post-emergence, dose 4 g a.i./hm^2, visual, 0 = no control effect, 100% = weeds completely killed
Text: (§1) The test method of the herbicidal activity of the compound in the present invention is as follows:
(§2) Quantitative grass weed (Echinochloa crusgalli and Setaria viridis) and broad-leaved weed (Abutilon theophrasti and Zinnia elegans) seeds were sown in paper cups having a diameter of 7 cm and containing nutrient soil, after sowing, the seeds were covered with 1 cm of soil, the soil was pressed and watered, and then the seeds were cultivated in a greenhouse according to a conventional method. The grass weeds grew to 2-3 leaf stages, the broad-leaved weeds grew to 2-4 leaf stages, stem and leaves were sprayed. Before emergence, the soil was sprayed within 24 hours after sowing. According to the design dose of the test, spray treatment was carried out on a track-type crop sprayer (designed and produced by British Engineer Research Ltd.) (spray pressure is 1.95 kg/cm^2, spray volume is 500 L/hm^2 and track speed is 1.48 km/h). The test was repeated for three times. The test material was treated and then placed in an operation hall. The medicinal liquid was naturally dried in the shade, and then was placed in a greenhouse and managed according to the conventional method. The response of the weeds to the test compound was observed and recorded. After treatment, the control effects of the test compound on the weeds were visually inspected regularly.
(§3) The grading standards of the control effects: 0 represents no control effect and 100% represents that the weeds are completely killed or greatly controlled.

[2] = tested on: Abutilon theophrasti; conditions: for Control effect on Abutilon theophrasti: post-emergence, dose 4 g a.i./hm^2, visual, 0 = no control effect, 100% = weeds completely killed
Text: as §1, §2, §3

[3] = tested on: Setaria viridis; conditions: for Control effect on Setaria viridis: post-emergence, visual, 0 = no control effect, 100% = weeds completely killed
Text: as §1, §2, §3

[4] = tested on: Echinochloa crusgalli; conditions: for Control effect on Echinochloa crusgalli: post-emergence, visual, 0 = no control effect, 100% = weeds completely killed
Text: as §1, §2, §3

[5] = post-emergence treatment, dose 4-8 g a.i./hm^2

| Structure (SMILES) | Control effect on Zinnia elegans [1] | Control effect on Abutilon theophrasti [2] | Control effect on Setaria viridis ([3]; dose 4 g a.i./hm^2) | Control effect on Setaria viridis ([3]; dose 8 g a.i./hm^2) | Control effect on Echinochloa crusgalli ([4]; dose 4 g a.i./hm^2) | Control effect on Echinochloa crusgalli ([4]; dose 8 g a.i./hm^2) | Herbicidal activity on Zinnia elegans (in words) [1, 5] | Herbicidal activity on Abutilon theophrasti (in words) [2, 5] | Herbicidal activity on Setaria viridi (in words) [3, 5] | Herbicidal activity on Echinochloa crusgalli (in words) [4, 5] |
| --- | --- | --- | --- | --- | --- | --- | --- | --- | --- | --- |
| CCOC(=O)C1(C)CC(c2cc(-n3c(=O)cc(C(F)(F)F)n(C)c3=O)c(F)cc2Cl)=NO1 (stereo not shown) [CN105753853 Compound 6, reference compound] | 90% | 60% | 25% | 55% | 45% | 50% |  |  |  |  |
| CCOC(=O)[C@]1(C)CC(c2cc(-n3c(=O)cc(C(F)(F)F)n(C)c3=O)c(F)cc2Cl)=NO1 [Compound 3] | 100% | 90% | 75% | 85% | 90% | 98% | high herbicidal activity | high herbicidal activity | high herbicidal activity | high herbicidal activity |
